In this experiment the target is T1, KRAS G12C 1-169, his-tagged protein, GDP-loaded (Homo sapiens, UniProt P01116, G12C).
T1 construct: KRAS G12C 1-169, his-tagged protein, GDP-loaded
In words: Biochemical assay: covalent modification of KRAS G12C measured by mass spectrometry (RapidFire/TOF or Q-Exactive). The class given is binding. To be noted: covalent binding to (modification of) KRAS G12C after a ten minute incubation period. The method, boiled down:
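GDP-loaded KRAS G12C 1-169 (his-tagged) at 2 μM or 0.5 μM in 20 mM Hepes, 150 mM NaCl, 1 mM MgCl2, incubated with compound at 100, 30 or 10 μM at room temperature for 10 min, 30 min, 2 h or 24 h, then quenched with formic acid. Intact-protein LC-MS, deconvolved; percent modification from modified versus unmodified protein.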

The values that follow come from US11377441B2, “Covalent inhibitors of KRAS” (Araxes Pharma LLC, priority 2017, dated 2022).

Consider `C=CC(=O)N1C[C@H](C)N(c2nc(N3CC(N(C)C)C3)nc3c(F)c(-c4c(C)cnc5[nH]ncc45)c(Cl)cc23)C[C@H]1C` [Compound 56, 1-((2R,5S)-4-(6-chloro-2-(3-(dimethylamino)azetidin-1-yl)-8-fluoro-7-(5-methyl-1H-pyrazolo[3,4-b]pyridin-4-yl)quinazolin-4-yl)-2,5-dimethylpiperazin-1-yl)prop-2-en-1-one], for which the Binding % entry is “+ (+ indicates binding activity greater than 0% and up to 50%)”.
Regarding `C=CC(=O)N1C[C@H](C)N(c2nc(N3CC(N(C)C)C3)nc3c(F)c(-c4c(C)ccc5[nH]nc(C6CC6)c45)c(Cl)cc23)C[C@H]1C` [Compound 57, 1-((2R,5S)-4-(6-chloro-7-(3-cyclopropyl-5-methyl-1H-indazol-4-yl)-2-(3-(dimethylamino)azetidin-1-yl)-8-fluoroquinazolin-4-yl)-2,5-dimethylpiperazin-1-yl)prop-2-en-1-one], the Binding % result is listed as “+++ (+++ indicates binding activity greater than 80%)”.
Consider `C=CC(=O)N1C[C@H](C)N(c2nc(NCCC(=O)N3CCCC3)nc3c(F)c(-c4c(C)ccc5[nH]nc(N)c45)c(Cl)cc23)C[C@H]1C` [Compound 60, 1-((2R,5S)-4-(7-(3-amino-5-methyl-1H-indazol-4-yl)-6-chloro-8-fluoro-2-(3-oxo-3-(pyrrolidin-1-yl)propylamino)quina-zolin-4-yl)-2,5-dimethylpiperazin-1-yl)prop-2-en-1-one], for which the Binding % entry is given as “+++ (+++ indicates binding activity greater than 80%)”.
As for `C=CC(=O)N1C[C@H](C)N(c2nc(N3CC(N(C)C)C3)nc3c(F)c(-c4c(C)ccc5[nH]nc(CC)c45)c(Cl)cc23)C[C@H]1C` [Compound 61, 1-((2R,5S)-4-(6-chloro-2-(3-(dimethylamino)azetidin-1-yl)-7-(3-ethyl-5-methyl-1H-indazol-4-yl)-8-fluoroquinazolin-4-yl)-2,5-dimethylpiperazin-1-yl)prop-2-en-1-one], the Binding % entry was “+++ (+++ indicates binding activity greater than 80%)”.
As for `C=CC(=O)N1C[C@H](C)N(c2nc(NCCC(=O)N(C)C)nc3c(F)c(-c4c(C)ccc5[nH]nc(N)c45)c(Cl)cc23)C[C@H]1C` [Compound 62, 3-(4-((2S,5R)-4-acryloyl-2,5-dimethylpiperazin-1-yl)-7-(3-amino-5-methyl-1H-indazol-4-yl)-6-chloro-8-fluoroquinazolin-2-ylamino)-N,N-dimethylpropanamide], the Binding % entry is given as “+++ (+++ indicates binding activity greater than 80%)”.
As for `C=CC(=O)N1C[C@H](C)N(c2nc(NCCCN(C)C)nc3c(F)c(-c4c(C)ccc5[nH]nc(N)c45)c(Cl)cc23)C[C@H]1C` [Compound 63, 1-((2R,5S)-4-(7-(3-amino-5-methyl-1H-indazol-4-yl)-6-chloro-2-(3-(dimethylamino)propyl-amino)-8-fluoroquinazolin-4-yl)-2,5-dimethylpiperazin-1-yl)prop-2-en-1-one], the Binding % entry is reported as “++ (++ indicates binding activity from 50 to 80%)”.
To `C=CC(=O)N1C[C@H](C)N(c2nc(NCCC(=O)N(C)C)nc3c(F)c(-c4c(C)ccc5onc(N)c45)c(Cl)cc23)C[C@H]1C` [Compound 64, 3-(4-((2S,5R)-4-acryloyl-2,5-dimethylpiperazin-1-yl)-7-(3-amino-5-methylbenzo[d]isoxa-zol-4-yl)-6-chloro-8-fluoroquinazolin-2-ylamino)-N,N-dimethylpropanamide] belongs “++ (++ indicates binding activity from 50 to 80%)”; to `C=CC(=O)N1C[C@H](C)N(c2nc(N3CC(N(C)C)C3)nc3c(F)c(-c4c(C)ccc5c(O)n[nH]c45)c(Cl)cc23)C[C@H]1C` [Compound 65, 1-((2R,5S)-4-(6-chloro-2-(3-(dimethylamino)azetidin-1-yl)-8-fluoro-7-(3-hydroxy-6-methyl-1H-indazol-7-yl)quinazolin-4-yl)-2,5-dimethylpiperazin-1-yl)prop-2-en-1-one], “+ (+ indicates binding activity greater than 0% and up to 50%)”; to `C=CC(=O)N1C[C@H](C)N(c2nc(Nc3cnn(C)c3)nc3c(F)c(-c4c(C)ccc5[nH]nc(N)c45)c(Cl)cc23)C[C@H]1C` [Compound 68, 1-((2R,5S)-4-(7-(3-amino-5-methyl-1H-indazol-4-yl)-6-chloro-8-fluoro-2-(1-methyl-1H-pyrazol-4-ylamino)quinazolin-4-yl)-2,5-dimethylpiperazin-1-yl)prop-2-en-1-one], “+++ (+++ indicates binding activity greater than 80%)”.
For the molecule `C=CC(=O)N1C[C@H](C)N(c2nc(OCCCN(CC)CC)nc3c(F)c(-c4c(C)ccc5[nH]nc(N)c45)c(Cl)cc23)C[C@H]1C` [Compound 69, 1-((2R,5S)-4-(7-(3-amino-5-methyl-1H-indazol-4-yl)-6-chloro-2-(3-(diethylamino)propoxy)-8-fluoroquinazolin-4-yl)-2,5-dimethylpiperazin-1-yl)prop-2-en-1-one], the Binding % result was “+++ (+++ indicates binding activity greater than 80%)”.
Consider `C=CC(=O)N1C[C@H](C)N(c2nc(OCCN3CCC(F)CC3)nc3c(F)c(-c4c(C)ccc5[nH]nc(N)c45)c(Cl)cc23)C[C@H]1C` [Compound 70, 1-((2R,5S)-4-(7-(3-amino-5-methyl-1H-indazol-4-yl)-6-chloro-8-fluoro-2-(2-(4-fluoropiperidin-1-yl)ethoxy)quinazolin-4-yl)-2,5-dimethylpiperazin-1-yl)prop-2-en-1-one], for which the Binding % result is recorded as “+++ (+++ indicates binding activity greater than 80%)”.
On to `C=CC(=O)N1C[C@H](C)N(c2nc(N3CC(N(C)C)C3)nc3c(F)c(-c4c(C)ccc5c(N)noc45)c(Cl)cc23)C[C@H]1C` [Compound 71, 1-((2R,5S)-4-(7-(3-amino-6-methylbenzo[d]isoxazol-7-yl)-6-chloro-2-(3-(dimethylamino)azetidin-1-yl)-8-fluoroquinazolin-4-yl)-2,5-dimethylpiperazin-1-yl)prop-2-en-1-one], for which the Binding % entry was “+ (+ indicates binding activity greater than 0% and up to 50%)”.
As to `C=CC(=O)N1C[C@H](C)N(c2nc(NCCCN3CCOCC3)nc3c(F)c(-c4c(C)ccc5[nH]nc(N)c45)c(Cl)cc23)C[C@H]1C` [Compound 72, 1-((2R,5S)-4-(7-(3-amino-5-methyl-1H-indazol-4-yl)-6-chloro-8-fluoro-2-(3-morpholinopropylami-no)quinazolin-4-yl)-2,5-dimethylpiperazin-1-yl)prop-2-en-1-one], the Binding % entry was “+++ (+++ indicates binding activity greater than 80%)”.
`C=CC(=O)N1C[C@H](C)N(c2nc(NCCCN(C)C)nc3c(F)c(-c4c(C)ccc5onc(N)c45)c(Cl)cc23)C[C@H]1C` [Compound 73, 1-((2R,5S)-4-(7-(3-amino-5-methylbenzo[d]isoxa-zol-4-yl)-6-chloro-2-(3-(dimethylamino)propyl-amino)-8-fluoroquinazolin-4-yl)-2,5-dimethylpiperazin-1-yl)prop-2-en-1-one]: the Binding % result was “+ (+ indicates binding activity greater than 0% and up to 50%)”.
Turning to `C=CC(=O)N1C[C@H](C)N(c2nc(Nc3cnn(C)c3)nc3c(F)c(-c4c(C)ccc5onc(N)c45)c(Cl)cc23)C[C@H]1C` [Compound 74, 1-((2R,5S)-4-(7-(3-amino-5-methylbenzo[d]osoxa-zol-4-yl)-6-chloro-8-fluoro-2-(1-methyl-1H-pyrazol-4-ylamino)quinazolin-4-yl)-2,5-dimethylpiperazin-1-yl)prop-2-en-1-one], the Binding % entry was “+ (+ indicates binding activity greater than 0% and up to 50%)”.
Turning to `C=CC(=O)N1C[C@H](C)N(c2nc(N3CC(N(C)C)C3)nc3c(F)c(-c4cncc5[nH]ncc45)c(Cl)cc23)C[C@H]1C` [Compound 77, 1-((2R,5S)-4-(6-chloro-2-(3-(dimethylamino)azetidin-1-yl)-8-fluoro-7-(1H-pyrazolo[3,4-c]pyridin-4-yl)quinazolin-4-yl)-2,5-dimethylpiperazin-1-yl)prop-2-en-1-one], the Binding % result was “+ (+ indicates binding activity greater than 0% and up to 50%)”.
`C=CC(=O)N1C[C@H](C)N(c2nc(OCCN(CC)CC)nc3c(F)c(-c4c(C)ccc5[nH]nc(N)c45)c(Cl)cc23)C[C@H]1C` [Compound 78, 1-((2R,5S)-4-(7-(3-amino-5-methyl-1H-indazol-4-yl)-6-chloro-2-(2-(diethylamino)ethoxy)-8-fluoroquinazolin-4-yl)-2,5-dimethylpiperazin-1-yl)prop-2-en-1-one]: the Binding % entry is reported as “+++ (+++ indicates binding activity greater than 80%)”.
In the case of `C=CC(=O)N1C[C@H](C)N(c2nc(NCCN3CCOCC3)nc3c(F)c(-c4c(C)ccc5[nH]nc(N)c45)c(Cl)cc23)C[C@H]1C` [Compound 79, 1-((2R,5S)-4-(7-(3-amino-5-methyl-1H-indazol-4-yl)-6-chloro-8-fluoro-2-(2-morpholinoethylamino)quinazolin-4-yl)-2,5-dimethylpiperazin-1-yl)prop-2-en-1-one], the Binding % result is “+++ (+++ indicates binding activity greater than 80%)”.
For `C=CC(=O)N1C[C@H](C)N(c2nc(NC3CCN(C4CC4)CC3)nc3c(F)c(-c4c(C)ccc5[nH]nc(N)c45)c(Cl)cc23)C[C@H]1C` [Compound 80, 1-((2R,5S)-4-(7-(3-amino-5-methyl-1H-indazol-4-yl)-6-chloro-2-(1-cyclopropylpiperidin-4-ylamino)-8-fluoroquinazolin-4-yl)-2,5-dimethylpiperazin-1-yl)prop-2-en-1-one], the Binding % entry was “+++ (+++ indicates binding activity greater than 80%)”.
To `C=CC(=O)N1C[C@H](C)N(c2nc(OCCN3CCOCC3)nc3c(F)c(-c4c(C)ccc5onc(N)c45)c(Cl)cc23)C[C@H]1C` [Compound 81, 1-((2R,5S)-4-(7-(3-amino-5-methylbenzo[d]isoxazol-4-yl)-6-chloro-8-fluoro-2-(2-morpholinoethoxy)quina-zolin-4-yl)-2,5-dimethylpiperazin-1-yl)prop-2-en-1-one] belongs “++ (++ indicates binding activity from 50 to 80%)”.
